This note sets out measurements from patent US8673578B2, “Methods of identifying antagonists of the hTAS2R46 bitter taste receptor” (Deutsches Institut für Ernahrungsforschung Potsdam-Rehbrücke, priority 2009, dated 2014).

SMILES strings stand for the structures.

Common to all, as to format: cell-based
Assay [1] deals with T1, hTAS2R46 (Homo sapiens, UniProt P59540).
T1 construct: expressed in transfected cells; host or cells: HEK293T cells stably expressing chimeric Gα16gust44, transient transfection
T1 sequence (P59540 1-309): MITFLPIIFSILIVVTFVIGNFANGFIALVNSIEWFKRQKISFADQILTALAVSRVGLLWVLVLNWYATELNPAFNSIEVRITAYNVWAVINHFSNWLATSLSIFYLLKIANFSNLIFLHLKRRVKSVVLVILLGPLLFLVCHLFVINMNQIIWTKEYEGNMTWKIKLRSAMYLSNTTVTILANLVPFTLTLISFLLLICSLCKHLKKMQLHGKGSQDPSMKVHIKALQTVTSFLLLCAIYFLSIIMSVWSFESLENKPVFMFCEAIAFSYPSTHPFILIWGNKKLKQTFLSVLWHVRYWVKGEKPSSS
Kind of assay: calcium imaging (FLIPR), activation of hTAS2R-transfected HEK293T-Gα16gust44 cells. Particulars: 100 μM test substance, bath application. The source says: (§1) Human TAS2R cDNAs were cloned into pcDNA5/FRT (Invitrogen, San Diego, Calif.). For adequate plasma membrane targeting, receptor cDNA was fused to the aminoterminal sequence of the rat somatostatin type 3 receptor at the aminoterminus of the recombinant protein (Bufe, B., T. Hofmann, et al. (2002) Nat Genet. 32(3): 397-401). For immunological detection, the Herpes simplex Glycoprotein D epitope was supplemented at the carboxyterminus of the recombinant protein (Bufe et al., supra). Receptor constructs were transiently transfected into HEK293T cells stably expressing the chimeric G protein subunit Gα16gust44 (Ueda, T., S. Ugawa, et al. (2003) J Neurosci 23(19): 7376-80) using Lipofectamine 2000 (Invitrogen, San Diego, Calif.) in 96-well plates.
Calcium Imaging experiments were performed 24 h after transfection using a Fluorometric Imaging Plate Reader (FLIPR, Molecular Devices, Munich, Germany) as previously described (Bufe et al., supra). Taste active compounds were ordered from Sigma (Sigma-Aldrich, Taufkirchen, Germany). Absinthin, 3β hydroxy dihydro costunolide and 3β hydroxy pelenolide were kindly provided by Giovanni Appendino (Novara, Italy). Test substances were directly dissolved in C1 buffer (130 mM NaCl, 10 mM Na-Hepes, 10 mM Glucose, 5 mM KCl, 2 mM CaCl2, pH 7.4) or in DMSO, respectively. DMSO stocks were further diluted in C1 buffer not exceeding a final DMSO concentration of 1% on the cells. For the investigation of antagonistic effects, test substances were premixed. Agonists were applied at concentrations corresponding to EC90, except where indicated otherwise (Table 2). Data were collected from 3 independent experiments performed in quadruplicates and processed with SigmaPlot (SPSS, Chicago, Ill.). Fluorescence signals after application of test substances were corrected for and normalized to background fluorescence (ΔF/F═(F−F0)/F0), and baseline noise was subtracted. Calculation of dose-response curves was done by nonlinear regression using the function f(y)=((a−d)/(1+(x/EC50)^nH)+d). […]
Finally, the impact of chemical modifications on the antagonistic properties of 3β hydroxy dihydro costunolide on hTAS2R46-expressing cells was studied. Derivatives of 3β hydroxy dihydro costunolide with site-directed modifications at C3 and C11 were generated (FIG. 7A) These derivatives were tested for activation or inhibition of hTAS2R46-expressing cells in the absence or presence of the agonist strychnine (3 μM) and half-maximum effective concentrations (EC50) or half-maximal inhibitory concentrations were calculated (FIG. 7B).

The target in assay [2] is T2, hTAS2R14 (Homo sapiens, UniProt Q9NYV8).
T2 construct: expressed in transfected cells; host or cells: HEK293T cells stably expressing chimeric Gα16gust44, transient transfection
T2 sequence (Q9NYV8 1-317): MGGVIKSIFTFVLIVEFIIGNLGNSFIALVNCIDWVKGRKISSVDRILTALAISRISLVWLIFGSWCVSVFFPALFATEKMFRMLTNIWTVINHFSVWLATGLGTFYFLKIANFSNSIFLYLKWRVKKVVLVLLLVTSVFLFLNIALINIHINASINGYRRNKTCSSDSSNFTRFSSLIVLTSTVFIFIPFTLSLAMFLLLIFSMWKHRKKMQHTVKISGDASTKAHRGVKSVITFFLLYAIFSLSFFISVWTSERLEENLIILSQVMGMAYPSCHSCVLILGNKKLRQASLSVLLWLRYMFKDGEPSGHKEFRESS
Described as above. As to conditions: 100 μM test substance, bath application.
From the text: as §1
(§2) Calcium Imaging experiments were performed 24 h after transfection using a Fluorometric Imaging Plate Reader (FLIPR, Molecular Devices, Munich, Germany) as previously described (Bufe et al., supra). Taste active compounds were ordered from Sigma (Sigma-Aldrich, Taufkirchen, Germany). Absinthin, 3β hydroxy dihydro costunolide and 3β hydroxy pelenolide were kindly provided by Giovanni Appendino (Novara, Italy). Test substances were directly dissolved in C1 buffer (130 mM NaCl, 10 mM Na-Hepes, 10 mM Glucose, 5 mM KCl, 2 mM CaCl2, pH 7.4) or in DMSO, respectively. DMSO stocks were further diluted in C1 buffer not exceeding a final DMSO concentration of 1% on the cells. For the investigation of antagonistic effects, test substances were premixed. Agonists were applied at concentrations corresponding to EC90, except where indicated otherwise (Table 2). Data were collected from 3 independent experiments performed in quadruplicates and processed with SigmaPlot (SPSS, Chicago, Ill.). Fluorescence signals after application of test substances were corrected for and normalized to background fluorescence (ΔF/F═(F−F0)/F0), and baseline noise was subtracted. Calculation of dose-response curves was done by nonlinear regression using the function f(y)=((a−d)/(1+(x/EC50)^nH)+d).
(§3) In a first series of experiments we tested the two sesquiterpene lactones 3β hydroxy dihydro costunolide (formula (I) in FIG. 1) and 3β hydroxy pelenolide (formula (II) in FIG. 1) for their ability to activate hTAS2 receptor-expressing HEK293T cells.
(§4) Signal amplitudes were comparatively small (FIG. 2C).

In assay [3] the target is T3, hTAS2R10 (Homo sapiens, UniProt Q9NYW0).
T3 construct: expressed in transfected cells; host or cells: HEK293T cells stably expressing chimeric Gα16gust44, transient transfection
T3 sequence (Q9NYW0 1-307): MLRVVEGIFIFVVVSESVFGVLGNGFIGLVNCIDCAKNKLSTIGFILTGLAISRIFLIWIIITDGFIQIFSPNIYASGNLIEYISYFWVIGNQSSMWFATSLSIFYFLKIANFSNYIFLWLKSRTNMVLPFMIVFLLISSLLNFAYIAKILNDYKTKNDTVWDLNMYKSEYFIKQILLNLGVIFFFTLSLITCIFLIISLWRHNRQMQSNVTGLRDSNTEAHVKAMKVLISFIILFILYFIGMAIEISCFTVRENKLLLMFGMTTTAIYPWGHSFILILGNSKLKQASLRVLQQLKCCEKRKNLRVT
The assay is described as above. Particulars: for calcium response of hTAS2R10-transfected cells: 100 μM test substance, bath application.
From the text: as §1, §2, §3, §4

For assay [4], the target named is T4, hTAS2R5 (Homo sapiens, UniProt Q9NYW4).
T4 construct: expressed in transfected cells; host or cells: HEK293T cells stably expressing chimeric Gα16gust44, transient transfection
T4 sequence (Q9NYW4 1-299): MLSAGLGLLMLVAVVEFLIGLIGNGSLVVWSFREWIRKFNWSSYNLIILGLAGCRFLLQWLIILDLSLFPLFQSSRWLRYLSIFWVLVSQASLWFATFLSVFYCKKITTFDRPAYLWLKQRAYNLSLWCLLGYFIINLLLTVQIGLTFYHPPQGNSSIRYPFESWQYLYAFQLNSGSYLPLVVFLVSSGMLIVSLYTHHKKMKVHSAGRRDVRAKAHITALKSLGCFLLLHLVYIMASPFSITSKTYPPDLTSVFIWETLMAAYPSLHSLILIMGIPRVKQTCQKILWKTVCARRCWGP
Kind of assay: calcium imaging (FLIPR), effect on agonist-dependent hTAS2R activation. Particulars: 100 μM test substance; agonist denatonium saccharide 3000 μM; agonist alone = 100%.
From the text: as §1, §2
To test 3β hydroxy dihydro costunolide and 3β hydroxy pelenolide for antagonistic or enhancing effects on hTAS2R activation, transfected cells were stimulated with cognate agonist bitter substances at EC90 concentrations (Table 2) without 3β hydroxy dihydro costunolide and 3β hydroxy pelenolide. The cellular responses after application of the agonist alone were set to 100%, responses obtained after coapplication of agonists and 100 μM 3β hydroxy dihydro costunolide or 100 μM 3β hydroxy pelenolide are shown relative to this value (FIG. 4).

In the case of `C/C1=C\C[C@H](O)[C@@H](C)C[C@H]2OC(=O)[C@@H](C)[C@@H]2CC1` [3β hydroxy pelenolide], the “calcium response of hTAS2R46-transfected cells” value in assay [1] is “displayed calcium signals”. For the same molecule, the “calcium response of hTAS2R14-transfected cells” value in assay [2] is “displayed calcium signals”. In assay [3], the “calcium response of hTAS2R10-transfected cells” value is “displayed calcium signals”.

Regarding `C/C1=C\C[C@H](O)/C(C)=C/[C@H]2OC(=O)[C@@H](C)C2CC1` (stereo partly drawn) [3β hydroxy dihydro costunolide], in assay [2], the “calcium response of hTAS2R14-transfected cells” value was “responded”. In assay [3], the “calcium response of hTAS2R10-transfected cells” value is listed as “responded”. The EC50 in assay [3] (concentration-response, intracellular calcium) amounted to 25.2 ± 3.6 µM. In addition, the “agonist-dependent response of hTAS2R5-expressing cells on coapplication” value in assay [4] is listed as “increased responses”.

One may read the EC50 as the midpoint of the concentration-response curve.
